Measurements taken from patent US10874669B2 (WAYNE STATE UNIVERSITY, priority 2018, dated 2020).
pKi: −log10 of the molar value. Entries after “also recorded” stand apart in the source; their conditions may differ.

Key:
cloned rat D2L receptors = cloned rat D2L receptors (Rattus norvegicus (Rat), UniProt P61169); experiment: [3H]spiroperidol competition binding, rat D2L receptors in HEK-293 cells; conditions: values of Table 3; for pKi: rat D2 in HEK-293 cells; for D2/D3: ratio of Ki values
Source text: (§1) All these procedures were described by us previously.

cloned rat D3 receptors = cloned rat D3 receptors (Rattus norvegicus (Rat), UniProt P19020); experiment: [3H]spiroperidol competition binding, rat D3 receptors in HEK-293 cells; conditions: rat D3 in HEK-293 cells; values of Table 3
cloned rat D3 receptors, sequence (P19020 whole entry): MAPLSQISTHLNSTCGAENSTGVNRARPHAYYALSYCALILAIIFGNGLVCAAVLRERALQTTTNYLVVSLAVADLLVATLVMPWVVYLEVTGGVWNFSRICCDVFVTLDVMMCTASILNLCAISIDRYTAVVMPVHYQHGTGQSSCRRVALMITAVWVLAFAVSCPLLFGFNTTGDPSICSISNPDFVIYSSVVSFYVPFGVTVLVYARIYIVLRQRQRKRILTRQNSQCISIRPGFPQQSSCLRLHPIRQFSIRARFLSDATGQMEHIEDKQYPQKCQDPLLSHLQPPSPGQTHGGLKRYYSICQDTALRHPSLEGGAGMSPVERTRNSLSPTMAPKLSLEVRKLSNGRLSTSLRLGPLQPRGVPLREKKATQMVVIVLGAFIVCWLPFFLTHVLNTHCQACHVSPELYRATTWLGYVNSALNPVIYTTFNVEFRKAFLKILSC
Experimental: A well established radioligand competition assay was carried out to evaluate binding affinity of the test compounds and were compared with that of the reference agent (S)-5-OH-DPAT (Table 3). Binding affinity to rat DA D2 and D3 receptors expressed in HEK-293 cells was determined as described by us previously. […] This indicated highest tolerance of the 4-substituted carbazole derivative for interaction with the D2 and D3 receptors.
as §1

PC12 cells [1] = experiment: MTT cell viability, compounds alone; type: cell-based, rat
Experimental: To investigate the neuroprotection property of the selected target molecules (−)-91b, (−)-95a and (−)-95c against 6-OHDA-induced cytotoxicity, we used dopaminergic rat adrenal Pheochromocytoma PC12 cells. As reported above, treatment of PC12 cells with 6-OHDA at 75 μM for 24 h produced ˜50% loss in cells viability and this concentration was used in subsequent experiments. […] However, (−)-95a produced some incremental toxicity starting at 20 μM dose (FIG. 4B). The potential neuroprotective effects of (−)-91b, (−)-95a and (−)-95c against 6-OHDA-induced toxicity were evaluated next. […] At those concentration both drugs increased cell survival by ˜20% compared to 6-OHDA (75 μM) treated alone (FIGS. 4D and 4F), indicating neuroprotective effect of these drugs. […] This could be due to the fact that the compound by itself produced toxicity to the cells at doses ≥20 μM and the presence of 6-OHDA enhanced the toxicity (FIG. 4B).
PC12 cells (ATCC CRL1721.1, Manassas, Va., USA), a rat adrenal pheochromocytoma cell line, were cultured in T-75 flasks (Greiner Bio One, Frickenhausen, Germany) and maintained in RPMI 1640 medium supplemented with 10% heat inactivated horse serum, 5% fetal bovine serum, 100 U/ml penicillin, and 100 μg/mL streptomycin at 37° C. in 95% air/5% CO2. Stock solutions of (−)-91b, (−)-95a, (−)-95c, and 6-hydroxydopamine (6-OHDA) were prepared in dimethylsulfoxide (DMSO) and aliquots were stored at −20° C. and −80° C., respectively. […]
PC12 cells were plated at 17000 cells/well density in 100 μL of media in 96-well plates and incubated at 37° C. under 5% CO2 atmosphere for 24 h. […] The absorbance was measured on a microplate reader (Biotek Epoch, Winooski, Vt., USA) at 570 nm with background correction performed at 690 nm. Data from at least three experiments were analyzed using GraphPad software (version 6, San Diego, Calif., USA). Cell viability was defined as […] compared to untreated controls.

α-syn = α-syn (Homo sapiens (Human), UniProt P37840); experiment: Thioflavin T assay of α-syn aggregation seeded with 0.5% PFFs; type: biochemical; conditions: 172.9 μM compound, 30D, 37° C., no agitation
Experimental: The α-syn assay was carried out by following the procedures developed by us earlier. The compounds (−)-91b (D636) and (−)-95a (D653) were incubated with α-syn seeded with 0.5% PFFs for a period of 30D at 37° C. without agitation. […] Both (−)-91b and (−)-95a lead to a significant decrease in the ThT fluorescence (p<0.0001) when compared to α-syn seeded with 0.5% PFFs alone at 30D (FIG. 5A).
The experimental conditions were followed as described in our earlier publication. Briefly, α-syn fibrils were formed by incubating purified α-syn at a concentration of 5 mg/mL at 37° C. under constant agitation at 1000 rpm in a Thermomix R shaker (Eppendorf, Hamburg, Germany) for a period of 5 days. These fibrils at a concentration of 0.5% were used to seed the aggregation of α-syn at 1.25 mg/ml (86.45 μM) with or without compounds D636 or D653 at a concentration of 172.9 μM without agitation at 37° C. for a period of 30 days. Samples were collected at 0D and 30D. Thioflavin T (ThT) assay was performed using these samples as described previously to evaluate the extent of aggregation.

PC12 cells [2] = experiment: MTT viability of PC12 cells treated with seeded α-syn aggregates; type: cell-based, rat; conditions: 30D samples, 24 h treatment, compared to control (seeded α-syn alone 37%)
Experimental: When PC12 cells were treated with the aggregates formed by 0.5% PFFs seeding at 30D, it was observed that the viability went down to 37% when compared to control. […] The viability values of PC12 cells when treated with α-syn seeded samples in the presence of (−)-91b and (−)-95a were 71% and 72% at 30D when compared to control (FIG. 5B).
Further, the cytotoxicity of the aggregates formed was evaluated in PC12 cells. Briefly, PC12 cells were treated with α-syn aggregates such that its concentration is 10 μM. 24 h following treatments, viability was measured by MTT assay as described previously.

[3] = tested on: reserpine-induced hypolocomotion in rats; experiment: Reversal of reserpine-induced hypolocomotion in rats; conditions: 10 μMol/kg, ip; for duration of locomotor activation: locomotion monitored for 6 h; for reversal of reserpine-induced akinesia / hypolocomotion (horizontal activity): reserpine 5 mg/kg sc, 18 h pretreatment, rats
Experimental: In this model depletion of catecholamines by reserpine results in catalepsy in rats.
The following commercially available drug was used in the experiment: reserpine hydrochloride (Alfa Aesar). […] The compounds for this study were administered in a volume of 0.1-0.2 mL for subcutaneous administration and 0.5-0.7 ml for interaperitoneal administration into each rat.
In rodent studies, animals were male and female Sprague-Dawley rats from Harlan (Indianapolis, Ind.) weighing 220-225 g unless otherwise specified. Animals were maintained in sawdust-lined cages in a temperature and humidity controlled environment at 22±1° C. and 60±5% humidity, respectively. A 12 h light/dark cycle was maintained, with lights on from 6:00 a.m. to 6:00 p.m. They were group-housed with unrestricted access to food and water. All experiments were performed during the light component.
Reserpine (5.0 mg/kg, sc) was administered 18 h before the injection of drug or vehicle. The rats were placed individually in the chambers for 1 h for acclimatization before administration of the test drugs or vehicle. Immediately after administration of drug or vehicle, animals were individually placed in Opto-Varimex 4 animal activity monitor chamber (Columbus Instruments, Ohio, USA) to start measuring locomotor activity. Locomotion was monitored for 6 h. […] The data were presented as horizontal activity (HACTV). […] The data were analyzed by one-way analysis of variance (ANOVA) followed by Dunnett's post hoc test.

cloned rat D2L receptors, sequence (P61169 whole entry): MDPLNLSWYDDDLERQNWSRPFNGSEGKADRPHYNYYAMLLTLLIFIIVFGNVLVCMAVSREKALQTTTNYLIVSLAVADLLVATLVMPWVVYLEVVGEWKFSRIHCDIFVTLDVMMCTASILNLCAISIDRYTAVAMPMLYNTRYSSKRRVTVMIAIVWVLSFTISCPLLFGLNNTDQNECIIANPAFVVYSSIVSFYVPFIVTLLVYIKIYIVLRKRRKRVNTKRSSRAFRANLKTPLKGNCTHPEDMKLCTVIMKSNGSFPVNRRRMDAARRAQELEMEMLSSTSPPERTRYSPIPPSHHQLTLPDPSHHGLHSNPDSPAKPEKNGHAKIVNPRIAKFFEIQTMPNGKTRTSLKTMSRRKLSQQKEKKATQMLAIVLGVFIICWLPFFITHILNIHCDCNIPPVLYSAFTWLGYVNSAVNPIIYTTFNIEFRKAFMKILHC

Row | Structure (SMILES) | pKi (cloned rat D2L receptors) | D2/D3 (cloned rat D2L receptors) | pKi (cloned rat D3 receptors) | cell viability, compound alone (PC12 cells [1]; 0.01-30 μM, compared to untreated controls) | decrease in ThT fluorescence compared to seeded α-syn (α-syn) [fold] | viability of PC12 cells treated with α-syn seeded samples formed with compound (PC12 cells [2]) [%] | duration of locomotor activation [3] | reversal of reserpine-induced akinesia / hypolocomotion (horizontal activity) [3] | dose at which compound alone produced toxicity (PC12 cells [1]; compound alone) [µM]
1 | CCCN(CCN1CCN(c2ccc3[nH]c4ccccc4c3c2)CC1)[C@H]1CCc2nc(N)sc2C1 [(−)-91b, (S)—N^6-(2-(4-(9H-carbazol-3-yl)piperazin-1-yl)ethyl)-N^6-propyl-4,5,6,7-tetrahydrobenzo[d]thiazole-2,6-diamine] | 6.87 | 35 | 8.42 | no cells loss | 16 | 71 | significant enhancement of locomotion for the duration of the study of 6 h | significantly reversed akinesia; also recorded: significantly different | 
2 | CCCN(CCN1CCN(c2ccc3c(c2)[nH]c2ccccc23)CC1)[C@H]1CCc2c(O)cccc2C1 [Compound (−)-95a, (S)-6-((2-(4-(9H-carbazol-2-yl)piperazin-1-yl)ethyl)(propyl)amino)-5,6,7,8-tetrahydronaphthalen-1-ol] | 7.15 | 177 | 9.40 |  | 3 | 72 | significant enhancement of locomotion for the duration of the study of 6 h | significantly reversed akinesia; also recorded: highest in vivo activity; also recorded: significantly different | ≥ 20
